# According to ChEMBL document CHEMBL3351975, “Design and synthesis of new series of coumarin-aminopyran derivatives possessing potential anti-depressant-like activity” (Bioorg Med Chem Lett, 2015):
# The source made the active and inactive calls. The rule behind the calls is not given here.
# Experiments:
# Mus musculus [1] = experiment: Antidepressant-like activity in Swiss albino mouse assessed as decrease in immobility time at 0.5 mg/kg, ip measured for 5 mins by forced swimming test relative to control; type: functional; conditions: route intraperitoneal
# Mus musculus [2] = experiment: Antidepressant-like activity in Swiss albino mouse assessed as decrease in immobility time at 1 mg/kg, ip measured for 5 mins by forced swimming test relative to control; type: functional, organism-based; parameters: dose 1 mg/kg
# Mus musculus [3] = experiment: Antidepressant-like activity in Swiss albino mouse assessed as decrease in immobility time at 20 mg/kg, ip measured for 5 mins by forced swimming test relative to control; type: functional; conditions: route intraperitoneal
# Mus musculus [4] = experiment: Antidepressant-like activity in Swiss albino mouse assessed as decrease in immobility time at 0.5 mg/kg, ip measured for 5 mins by tail suspension test relative to control; type: functional, organism-based; parameters: dose 0.5 mg/kg
# Mus musculus [5] = experiment: Neurotoxicity in Swiss albino mouse assessed as effect on locomotor activity measured as horizontal activity at 0.5 mg/kg, ip measured for 2 min at 30 min intervals for 90 mins duration by open field test relative to control; type: toxicity, organism-based; parameters: dose 0.5 mg/kg, route intraperitoneal; conditions: in vivo, 1.5 h
# Mus musculus [6] = experiment: Neurotoxicity in Swiss albino mouse assessed as effect on locomotor activity measured as total distance travelled at 0.5 mg/kg, ip measured for 2 min at 30 min intervals for 90 mins duration by open field test relative to control; type: toxicity, organism-based; parameters: dose 0.5 mg/kg, route intraperitoneal; conditions: in vivo, 1.5 h
# Mus musculus [7] = experiment: Neurotoxicity in Swiss albino mouse assessed as motor impairment effects at 1 mg/kg, ip measured for 30 to 180 mins duration by rotarod test relative to control; type: toxicity, organism-based; parameters: dose 1 mg/kg, route intraperitoneal; conditions: in vivo
# Mus musculus [8] = experiment: Antidepressant-like activity in Swiss albino mouse assessed as decrease in immobility time at 0.25 mg/kg, ip measured for 5 mins by forced swimming test relative to control; type: functional; conditions: for inhibition in vivo at 0.25 mg/kg: route intraperitoneal
SMILES,inhibition in vivo at 0.5 mg/kg (Mus musculus [1]),Activity (Mus musculus [2]),Activity (Mus musculus [4]),further results
CCC(C)c1cc(C2C(C#N)=C(N)OC3=C2C(=O)CCC3)cc2cc(-c3ccc(OC)cc3)c(=O)oc12 (centres undefined),35%,Active,–,–
CCC(C)c1cc(C2C(C#N)=C(N)OC3=C2C(=O)CC(C)(C)C3)cc2cc(-c3ccc(OC)cc3)c(=O)oc12 (centres undefined),26.9%,Active,–,–
COc1cc(-c2cc3cc(C4C(C#N)=C(N)OC5=C4C(=O)CC(C)(C)C5)cc(C(C)(C)C)c3oc2=O)cc(OC)c1OC (centres undefined),30.1%,–,–,–
CNCCC(Oc1ccc(C(F)(F)F)cc1)c1ccccc1 (centres undefined) [FLUOXETINE],–,–,Active,inhibition in vivo at 20 mg/kg (Mus musculus [3]): 69.8%
COc1ccc(-c2cc3cc(C4C(C#N)=C(N)OC5=C4C(=O)CC(C)(C)C5)cc(C)c3oc2=O)cc1OC (centres undefined),10.4%,–,–,–
COc1ccc(-c2cc3cc(C4C(C#N)=C(N)OC5=C4C(=O)CC(C)(C)C5)cc(C(C)C)c3oc2=O)cc1 (centres undefined),64.9%,Active,Active,Activity (Mus musculus [5]): Non-toxic; Activity (Mus musculus [6]): Non-toxic; Activity (Mus musculus [7]): Non-toxic; inhibition (Mus musculus [8]): inactive
COc1cc(-c2cc3cc(C4C(C#N)=C(N)OC5=C4C(=O)CCC5)cc(C(C)C)c3oc2=O)cc(OC)c1OC (centres undefined),31.9%,–,–,–
CN(C)CCCN1c2ccccc2CCc2ccccc21,–,–,Active,–
COc1ccc(-c2cc3cc(C4C(C#N)=C(N)OC5=C4C(=O)CCC5)cc(C(C)(C)C)c3oc2=O)cc1 (centres undefined),30.6%,Active,–,–
COc1cc(-c2cc3cc(C4C(C#N)=C(N)OC5=C4C(=O)CC(C)(C)C5)cc(C)c3oc2=O)cc(OC)c1OC (centres undefined),6.37%,–,–,–
COc1ccc(-c2cc3cc(C4C(C#N)=C(N)OC5=C4C(=O)CC(C)(C)C5)cc(C(C)(C)C)c3oc2=O)cc1OC (centres undefined),22.5%,–,–,–
COc1ccc(-c2cc3cc(C4C(C#N)=C(N)OC5=C4C(=O)CCC5)cc(C(C)(C)C)c3oc2=O)cc1OC (centres undefined),-16.6%,–,–,–
COc1cc(-c2cc3cc(C4C(C#N)=C(N)OC5=C4C(=O)CCC5)cc(C(C)(C)C)c3oc2=O)cc(OC)c1OC (centres undefined),5.33%,–,–,–
COc1ccc(-c2cc3cc(C4C(C#N)=C(N)OC5=C4C(=O)CC(C)(C)C5)cc(C(C)(C)C)c3oc2=O)cc1 (centres undefined),27.2%,–,–,–
COc1ccc(-c2cc3cc(C4C(C#N)=C(N)OC5=C4C(=O)CCC5)cc(C(C)C)c3oc2=O)cc1OC (centres undefined),57.2%,Active,Active,Activity (Mus musculus [5]): Non-toxic; Activity (Mus musculus [6]): Non-toxic; Activity (Mus musculus [7]): Non-toxic; inhibition in vivo at 0.25 mg/kg (Mus musculus [8]): 49%
COc1ccc(-c2cc3cc(C4C(C#N)=C(N)OC5=C4C(=O)CCC5)cc(C(C)C)c3oc2=O)cc1 (centres undefined),69.7%,Active,Active,Activity (Mus musculus [5]): Non-toxic; Activity (Mus musculus [6]): Non-toxic; Activity (Mus musculus [7]): Non-toxic; inhibition (Mus musculus [8]): inactive
COc1ccc(-c2cc3cc(C4C(C#N)=C(N)OC5=C4C(=O)CC(C)(C)C5)cc(C(C)C)c3oc2=O)cc1OC (centres undefined),86.6%,Active,Active,Activity (Mus musculus [5]): Non-toxic; Activity (Mus musculus [6]): Non-toxic; Activity (Mus musculus [7]): Non-toxic; inhibition in vivo at 0.25 mg/kg (Mus musculus [8]): 41%
CCC(C)c1cc(C2C(C#N)=C(N)OC3=C2C(=O)CCC3)cc2cc(-c3cc(OC)c(OC)c(OC)c3)c(=O)oc12 (centres undefined),56.1%,Active,Active,Activity (Mus musculus [5]): Non-toxic; Activity (Mus musculus [6]): Non-toxic; Activity (Mus musculus [7]): Non-toxic; inhibition (Mus musculus [8]): inactive
CCC(C)c1cc(C2C(C#N)=C(N)OC3=C2C(=O)CC(C)(C)C3)cc2cc(-c3ccc(OC)c(OC)c3)c(=O)oc12 (centres undefined),57.4%,Active,Active,Activity (Mus musculus [5]): Non-toxic; Activity (Mus musculus [6]): Non-toxic; Activity (Mus musculus [7]): Non-toxic; inhibition in vivo at 0.25 mg/kg (Mus musculus [8]): 35%
COc1cc(-c2cc3cc(C4C(C#N)=C(N)OC5=C4C(=O)CC(C)(C)C5)cc(C(C)C)c3oc2=O)cc(OC)c1OC (centres undefined),29.2%,Active,–,–
CCC(C)c1cc(C2C(C#N)=C(N)OC3=C2C(=O)CC(C)(C)C3)cc2cc(-c3cc(OC)c(OC)c(OC)c3)c(=O)oc12 (centres undefined),28.2%,Active,–,–
COc1cc(-c2cc3cc(C4C(C#N)=C(N)OC5=C4C(=O)CCC5)cc(C)c3oc2=O)cc(OC)c1OC (centres undefined),5.22%,–,–,–
